Test results published in patent US10703717B2, “Water-soluble isatin derivative, and manufacturing method and application thereof” (TIANJIN UNIVERSITY OF SCIENCE & TECHNOLOGY, priority 2016, dated 2020).

Assays:
[1] = test system: HepG2 cells; assay: In-vitro anti-tumor activity, MTT assay, human liver cancer HepG2 cells; type: cell-based; settings: 48 h
Description: (§1) Anti-Tumor Activity Determination Method
(§2) Preparation of low glucose DMEM medium: MEM medium (Hyclone) was purchased with low glucose, 500 mL per bottle, 10% fetal bovine serum and 1% streptomycin solution were added in it. That is, 50 mL of fetal bovine serum and 5 mL of streptomycin were added to each flask of the medium. The preparation of the medium was carried out in an ultra-clean workbench and stored in a refrigerator at 4° C.
(§3) Preparation of PBS buffer: Sodium chloride 8 g, potassium chloride 0.2 g, disodium hydrogen phosphate dodecahydrate 2.9 g, potassium dihydrogen phosphate 0.2 g and purified water 800 mL were placed into a 1000 mL conical flask, the mixture was stirred and dissolved to a volume of 1000 mL. After autoclaving, PBS buffer was stored in a refrigerator at 4° C.
(§4) Preparation of MTT solution: 0.5 g MTT dry powder was dissolved in 100 mL PBS buffer. After sterilizing by filtration through a […] filter, it was stored in a refrigerator at −12° C.
(§5) Three kinds of tumor cells were used in the antitumor activity assay of the present invention: human liver cancer cells (HepG2), human leukemia cells (K562) and human colon cancer cells (HCT116).
Activity Test Using Human Liver Cancer HepG2 Cells
The human liver cancer cells (HepG2) were grown in DMEM medium supplemented with 10% fetal bovine serum, 1% penicillin/streptomycin and were cultured in an incubator of 5% CO2 at 37° C. The method comprises the following steps:
(1) After counting the cells with a hemocytometer, dilute it to a density of 5×10^4 cells/mL with low glucose DMEM medium;
(§6) (2) 100 μl cell suspension was added in each well of 96-well plates and incubated at 37° C. for 24 h;
(§7) (3) The compound to be tested was diluted to five concentrations: 2 mM, 200 μM, 20 μM, 2 μM, 0.2 μM. Then, 0.5 μL compound of different concentrations was added to the well and incubated at 37° C. for another 48 h;
(§8) (4) MTT (5 mg/ml) was added to each well and the plate was further incubated for 4 h at 37° C.;
(§9) (5) Dissolving the cells with DMSO, and the OD values were measured at 490 nm and 630 nm by a microplate reader; […]

[2] = test system: HCT116 cells; assay: In-vitro anti-tumor activity, MTT assay, human colon cancer HCT116 cells; type: cell-based; settings: HCT-116, 48 h
Description: as §1
as §2, with “DMEM/F-12” for “low glucose DMEM”, “MEM/F-12” for “MEM”, “purchased,” for “purchased with low glucose,”
as §3, §4, §5
Activity test using human colon cancer HCT116 cells
The human colon cancer cells (HCT116) were grown in DMEM/F-12 medium supplemented with 10% fetal bovine serum, 1% penicillin/streptomycin and were cultured in an incubator of 5% CO2 at 37° C. The method comprises the following steps:
(1) After counting the cells with a hemocytometer, dilute it to a density of 5×10^4 cells/mL with DMEM/F-12 medium;
as §6
(3) The compound to be tested was diluted to five concentrations: 2 mM, 200 μM, 20 μM, 2 μM, 0.2 μM. Then, 0.5 μL compound of different concentrations was added to each well and incubated at 37° C. for another 48 h;
(4) MTT (5 mg/ml) was added to the well and the plate was further incubated for 4 h at 37° C.;
as §9

[3] = test system: K562 cells; assay: In-vitro anti-tumor activity, MTT assay, human leukemia K562 cells; type: cell-based; settings: 48 h
Description: as §1, §3, §4, §5
Activity test using human leukemia K562 cells
The human leukemia cells (K562) were grown in RPMI1640 medium supplemented with 10% fetal bovine serum, 1% penicillin/streptomycin and were cultured in an incubator of 5% CO2 at 37° C.
The method comprises the following steps:
(1) After counting the cells with a hemocytometer, dilute it to a density of 5×10^4 cells/mL with RPMI1640 medium;
(2) 100 μl cell suspension was added in each well of 96-well plates and incubated at 37° C. for 2 h;
as §7, §8
(5) Dissolving the cells with DMSO, and the OD values were measured at 570 nm and 630 nm by a microplate reader;
(6) Process the data by calculating the IC50 value based on the OD values.

[4] = Water solubility; type: physicochemical; settings: for water solubility, in words: summary of table 1
[5] = test system: tumor cells (HepG2, K562, HCT116); assay: In-vitro anti-tumor activity, summary in words over the three tumor cell lines; type: cell-based, human; settings: summary of table 1; for cytotoxic / anti-tumor activity, in words: compared with precursor/parent compound
Excerpt: as §1, §5

| IC50 [1] [nM] | IC50 [2] [nM] | IC50 [3] [nM] | Water solubility [4] | water solubility, in words [4] | SMILES | cytotoxic / anti-tumor activity, in words [5] | activity compared with positive reference substance camptothecin [5] |
| --- | --- | --- | --- | --- | --- | --- | --- |
| 1000 to 10000 | 1000 to 10000 | 1000 to 10000 | >10 g/100 g | obviously improved | COc1ccc(CN2C(=O)C(=O)c3cc(-c4ccc(O)c(CN(C)C)c4)ccc32)cc1 [Compound 1] | still retains certain cytotoxic activity |  |
| 1000 to 10000 | < 10 | < 10 | >10 g/100 g | obviously improved | COC(=O)/C=C/c1ccc2c(c1)C(=O)C(=O)N2Cc1ccc(O)c(CN(C)C)c1 [Compound 2] | greatly improved | superior |

| SMILES | IC50 [1] [nM] | IC50 [2] [nM] | IC50 [3] [nM] | Water solubility [4] | water solubility, in words [4] | cytotoxic / anti-tumor activity, in words [5] | activity compared with positive reference substance camptothecin [5] |
| --- | --- | --- | --- | --- | --- | --- | --- |
| CC[C@@]1(O)C(=O)OCc2c1cc1n(c2=O)Cc2cc3ccccc3nc2-1 [CPT, camptothecin, reference compound] | 100 to 1000 | 100 to 1000 | 100 to 1000 | insoluble |  |  |  |
